ChEMBL document CHEMBL3044725, “Structure-based molecular design, synthesis, and in vivo anti-inflammatory activity of pyridazinone derivatives as nonclassic COX-2 inhibitors” (2010)

Experiments:
Assay type in all cases: functional
Conditions in all cases: route subcutaneous
Rattus norvegicus [1] = assay: Anti-inflammatory activity in Rattus norvegicus albino (rat) assessed as reduction in carrageenan-induced paw volume at 5 mg/kg, sc pretreated 2 hr before carrageenan challenge measured after 1 hr by plethysmometer (reference value: 1.95 +/- 0.03 to 2 ml)
Rattus norvegicus [2] = assay: Anti-inflammatory activity in Rattus norvegicus albino (rat) assessed as reduction in carrageenan-induced paw volume at 5 mg/kg, sc pretreated 1 hr before carrageenan challenge measured after 1 hr by plethysmometer (reference value: 1.95 +/- 0.03 to 2 ml)
Rattus norvegicus [3] = assay: Anti-inflammatory activity in Rattus norvegicus albino (rat) assessed as reduction in carrageenan-induced paw volume at 5 mg/kg, sc pretreated 4 hr before carrageenan challenge measured after 1 hr by plethysmometer (reference value: 1.95 +/- 0.03 to 2 ml)
Rattus norvegicus [4] = assay: Anti-inflammatory activity in Rattus norvegicus albino (rat) assessed as reduction in carrageenan-induced paw volume at 5 mg/kg, sc pretreated 3 hr before carrageenan challenge measured after 1 hr by plethysmometer (reference value: 1.95 +/- 0.03 to 2 ml)

| Structure (SMILES) | Activity (Rattus norvegicus [1]) | Activity (Rattus norvegicus [2]) | Activity (Rattus norvegicus [3]) | Activity (Rattus norvegicus [4]) |
| --- | --- | --- | --- | --- |
| O=c1ccc(-c2nc3ccccc3nc2-c2ccccc2)n[nH]1 | 1.37 mL | 1.97 mL | 0.38 mL | 1 mL |
| O=c1ccc(-c2nc3ccccc3nc2-c2ccc(Cl)cc2)n[nH]1 | 0.95 mL | 1.48 mL | 0.03 mL | 0.55 mL |
| COc1ccc(-c2nc3ccccc3nc2-c2ccc(=O)[nH]n2)cc1 | 1.5 mL | 1.55 mL | 1.27 mL | 1.38 mL |
| O=c1ccc(C2Nc3ccccc3NC2c2ccccc2)n[nH]1 (stereo not drawn) | 2.02 mL | 2 mL | 2.07 mL | 2 mL |
| O=c1ccc(C2Nc3ccccc3NC2c2ccc(Cl)cc2)n[nH]1 (stereo not drawn) | 1.93 mL | 1.93 mL | 2.12 mL | 2 mL |
| COc1ccc(C2Nc3ccccc3NC2c2ccc(=O)[nH]n2)cc1 (stereo not drawn) | 1.42 mL | 1.58 mL | 1.32 mL | 1.38 mL |
| O=C(O)Cc1ccccc1Nc1c(Cl)cccc1Cl [DICLOFENAC] | 0.57 mL | 0.92 mL | 0.03 mL | 0.3 mL |
